Key:
human PEPT2 = biological target: T1, human PEPT2 (Homo sapiens, UniProt Q16348); experiment: Direct uptake transporter assay, PEPT2; type: in vitro ADME; conditions: for Accumulation in transporter transfected cells: PEPT2-transfected cells; for Accumulation in parental cells: parental CHO cells (PEPT2 line)
T1 construct: expressed in transfected cells; host or cells: CHO cells
T1 sequence (Q16348 1-729): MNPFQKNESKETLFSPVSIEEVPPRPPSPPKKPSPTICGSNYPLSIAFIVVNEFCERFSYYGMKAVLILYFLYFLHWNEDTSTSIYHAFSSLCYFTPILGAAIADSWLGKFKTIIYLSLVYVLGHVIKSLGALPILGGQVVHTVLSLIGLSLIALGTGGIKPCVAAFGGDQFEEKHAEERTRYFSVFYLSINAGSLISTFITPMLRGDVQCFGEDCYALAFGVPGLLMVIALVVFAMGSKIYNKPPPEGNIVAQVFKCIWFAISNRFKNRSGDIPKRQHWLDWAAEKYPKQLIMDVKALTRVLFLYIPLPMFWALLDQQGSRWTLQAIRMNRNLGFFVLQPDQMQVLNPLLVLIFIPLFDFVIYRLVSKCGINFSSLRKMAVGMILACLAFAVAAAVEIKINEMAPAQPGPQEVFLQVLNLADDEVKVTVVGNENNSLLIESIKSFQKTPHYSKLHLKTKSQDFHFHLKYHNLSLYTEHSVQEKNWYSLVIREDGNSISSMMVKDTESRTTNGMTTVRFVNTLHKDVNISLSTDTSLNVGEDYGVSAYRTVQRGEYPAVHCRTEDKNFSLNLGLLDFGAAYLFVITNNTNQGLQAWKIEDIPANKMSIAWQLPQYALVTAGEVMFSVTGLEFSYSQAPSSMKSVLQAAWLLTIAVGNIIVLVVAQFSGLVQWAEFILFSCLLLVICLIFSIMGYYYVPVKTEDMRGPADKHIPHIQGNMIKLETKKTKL
Description: (§1) To determine whether memantine is a substrate of the human OATP2B1 (OATP-B), OCT1, OCT2, OAT3, PEPT1, PEPT2 uptake transporters.
(§2) The potential for memantine to be a substrate of an uptake transporter was determined directly by comparing the uptake of memantine into cells expressing the selected uptake transporter with its uptake into control cells. Memantine was added to transporter-expressing and control cells at two concentrations (PEPT1 and PEPT2 100 and 300 µM, OCT1 and OCT2 50 and 100 µM, OATP2B1 100 and 300 µM), and incubated with cells for 2 and 20 min at 37±1°C (75 µL final incubation volume). The final concentrations of memantine were selected to be the IC50 of reporter substrate transport inhibition established in the indirect transporter assay and one order of magnitude lower. Incubations were carried out as described in the indirect uptake transporter assays. The concentration of memantine was determined by LC-MS/MS.

human OCT1 = biological target: T2, human OCT1 (Homo sapiens, UniProt O15245); experiment: Direct uptake transporter assay, OCT1; type: in vitro ADME; conditions: for Accumulation in transporter transfected cells: OCT1-transfected cells; for Accumulation in parental cells: parental CHO cells (OCT1 line)
T2 construct: expressed in transfected cells; host or cells: CHO cells
T2 sequence (O15245 1-554): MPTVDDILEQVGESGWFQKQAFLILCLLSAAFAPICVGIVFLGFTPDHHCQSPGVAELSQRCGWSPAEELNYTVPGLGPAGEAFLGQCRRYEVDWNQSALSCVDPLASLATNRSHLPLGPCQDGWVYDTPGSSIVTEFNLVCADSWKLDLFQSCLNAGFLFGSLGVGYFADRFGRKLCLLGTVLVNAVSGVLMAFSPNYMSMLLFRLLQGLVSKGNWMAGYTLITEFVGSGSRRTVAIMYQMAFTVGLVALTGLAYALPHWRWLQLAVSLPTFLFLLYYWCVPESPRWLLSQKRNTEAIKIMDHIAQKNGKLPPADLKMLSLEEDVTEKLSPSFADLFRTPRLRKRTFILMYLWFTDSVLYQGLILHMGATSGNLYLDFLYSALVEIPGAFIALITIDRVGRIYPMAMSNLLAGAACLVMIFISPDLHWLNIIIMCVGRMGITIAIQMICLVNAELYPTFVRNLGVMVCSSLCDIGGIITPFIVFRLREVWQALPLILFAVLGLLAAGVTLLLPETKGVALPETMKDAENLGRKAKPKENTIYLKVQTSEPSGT
Description: as §1
as §2, with “The final concentrations of memantine were selected to be the IC50 of reporter substrate transport inhibition established in the indirect transporter assay and one order of magnitude lower.” left out

Compound: CC12CC3CC(C)(C1)CC(N)(C3)C2 [memantine]
- Highest Fold Activation (human PEPT2; PEPT2, 100µM, 20 min): 0.97 (100µM, 20 min)
- Accumulation in transporter transfected cells (human PEPT2; 2 min, 100 µM): 937 pmol/mg
- Accumulation in transporter transfected cells (human PEPT2; 2 min, 300 µM): 1871 pmol/mg
- Accumulation in transporter transfected cells (human PEPT2; 20 min, 100 µM): 897 pmol/mg
- Accumulation in transporter transfected cells (human PEPT2; 20 min, 300 µM): 1759 pmol/mg
- substrate of PEPT2 uptake transporter (human PEPT2; no preferential accumulation in transfected over parental cells): not a substrate
- Accumulation in parental cells (human PEPT2; 2 min, 100 µM): 965 pmol/mg
- Accumulation in parental cells (human PEPT2; 2 min, 300 µM): 2011 pmol/mg
- Accumulation in parental cells (human PEPT2; 20 min, 100 µM): 1219 pmol/mg
- Accumulation in parental cells (human PEPT2; 20 min, 300 µM): 2056 pmol/mg
- active transport by OCT1 (human OCT1): not actively transported
- Highest Fold Activation (human OCT1; OCT1): Not observed
- Accumulation in transporter transfected cells (human OCT1; 2 min, 50 µM): 3818 pmol/mg
- Accumulation in transporter transfected cells (human OCT1; 2 min, 100 µM): 5878 pmol/mg
- Accumulation in transporter transfected cells (human OCT1; 20 min, 50 µM): 5540 pmol/mg
- Accumulation in transporter transfected cells (human OCT1; 20 min, 100 µM): 9190 pmol/mg
- Accumulation in parental cells (human OCT1; 2 min, 50 µM): 3894 pmol/mg
- Accumulation in parental cells (human OCT1; 2 min, 100 µM): 6337 pmol/mg
- Accumulation in parental cells (human OCT1; 20 min, 50 µM): 5672 pmol/mg
- Accumulation in parental cells (human OCT1; 20 min, 100 µM): 9576 pmol/mg

Source: article PMC3269340, “Pharmacokinetics of memantine in rats and mice” (PLoS Currents, 2012)
